According to patent publication US4452812A, “Organic complex of platinum, its preparation and its use for treating malignant tumors” (Sanofi, priority 1980, dated 1984):

Tested on: baboon
Experiment: Preliminary toxicological study in the baboon
Assay type: in vivo
Design: creatine level / Granulocytes / Platelets: unit not given here
Method: In order to find out the maximum tolerable dose, two baboons, identified by no 1 and no 2, received 100 mg/kg and 150 mg/kg respectively without prehydration. Hydration was performed on baboon no 3 which received a dose of 200 mg/kg.
The compound was injected into the femoral vein during 5 to 10 minutes. Baboon No. 3 (200 mg/kg) received 700 ml of physiological serum by intravenous route. Baboons Nos. 1 and 2 received 1000 ml by sub-cutaneous route.
Gastro-intestinal toxicity was the first type of toxicity to appear and generally manifested itself 1 to 2 hours after injection of the compound. […] D0 was the day of treatment and a sample was taken before the compound was injected.
The results on D0 were therefore control values.

[1] = baboon No 1, 100 mg/kg i.v., D2
[2] = baboon No 1, 100 mg/kg i.v., D6
[3] = baboon No 1, 100 mg/kg i.v., D16
[4] = baboon No 1, 100 mg/kg i.v., D30
[5] = baboon No 1, 100 mg/kg i.v., D37
[6] = baboon No 1, 100 mg/kg i.v., D38
[7] = baboon No 1, 100 mg/kg i.v., D41
[8] = baboon No 1, 100 mg/kg i.v., D48
[9] = baboon No 1, 100 mg/kg i.v., D57
[10] = baboon No 1, 100 mg/kg i.v., D62
[11] = baboon No 1, 100 mg/kg i.v., D76
[12] = baboon No 1, 100 mg/kg i.v., D79
[13] = baboon No 1, 100 mg/kg i.v., D85
[14] = baboon No 1, 100 mg/kg i.v., D90
[15] = baboon No 1, 100 mg/kg i.v., D100
[16] = baboon No 1, 100 mg/kg i.v., D105
[17] = baboon No 1, 100 mg/kg i.v., D106
[18] = baboon No 1, 100 mg/kg i.v., D111
[19] = baboon No 1, 100 mg/kg i.v., D122
[20] = baboon No 1, 100 mg/kg i.v., D129
[21] = baboon No 1, 100 mg/kg i.v., D134
[22] = baboon No 1, 100 mg/kg i.v., D140
[23] = baboon No 2, 150 mg/kg i.v., D1
[24] = baboon No 2, 150 mg/kg i.v., D4
[25] = baboon No 2, 150 mg/kg i.v., D11
[26] = baboon No 3, 200 mg/kg i.v., D4
[27] = baboon No 3, 200 mg/kg i.v., D6
[28] = baboon No 3, 200 mg/kg i.v., D12
[29] = baboon No 3, 200 mg/kg i.v., D15
[30] = baboon No 3, 200 mg/kg i.v., D18
[31] = baboon No 3, 200 mg/kg i.v., D24
[32] = baboon No 3, 200 mg/kg i.v., D30
[33] = baboon No 3, 200 mg/kg i.v., D40

NC1CCCCC1N.O=C([O-])CC(C(=O)[O-])C([O-])C(=O)[O-].[H+].[H+].[Pt+2] (stereo not drawn) [PHIC, cis-isocitrato (1,2-diaminocyclohexane) platinum (II)]
nephrotoxic effect (100 mg/kg i.v., absence of hydration): no nephrotoxic effect was observed
day on which creatinine levels return to normal values (200 mg/kg i.v. with hydration): 18 days
nephrotoxicity (200 mg/kg i.v. with hydration): nephtotoxicity is detected
vomiting (severity) (100-200 mg/kg i.v.): vomiting was not profuse
Quick plasma prothrombin time (baboon No 1, 100 mg/kg i.v., D1): 75%
Creatinine [1]: 110 μmols/l
Fibrinogen I [1]: 2.25 g/L
Quick plasma prothrombin time [1]: 80%
Creatinine [2]: 91 μmols/l
Fibrinogen I [2]: 2.40 g/L
Granulocytes [2]: 2480
Platelets [2]: 526000
Proaccelerin V [2]: 100%
Proconvertin VII + Stuart factor X [2]: 70%
Prothrombin II [2]: 95%
Quick plasma prothrombin time [2]: 65%
Weight [2]: 7.7 kg
Creatinine [3]: 105 μmols/l
Fibrinogen I [3]: 1.95 g/L
Granulocytes [3]: 4560
Platelets [3]: 414000
Quick plasma prothrombin time [3]: 95%
Weight [3]: 8.4 kg
Creatinine [4]: 138 μmols/l
Fibrinogen I [4]: 1.52 g/L
Granulocytes [4]: 3969
Platelets [4]: 414000
Quick plasma prothrombin time [4]: 85%
Creatinine [5]: 99 μmols/l
Fibrinogen I [5]: 1.46 g/L
Granulocytes [5]: 2989
Platelets [5]: 362000
Quick plasma prothrombin time [5]: 85%
Weight [5]: 8.35 kg
Creatinine [6]: 85 μmols/l
Fibrinogen I [6]: 1.85 g/L
Granulocytes [6]: 4824
Platelets [6]: 299000
Quick plasma prothrombin time [6]: 85%
Creatinine [7]: 102 μmols/l
Fibrinogen I [7]: 2.72 g/L
Granulocytes [7]: 4212
Platelets [7]: 371000
Quick plasma prothrombin time [7]: 100%
Creatinine [8]: 136 μmols/l
Fibrinogen I [8]: 2.70 g/L
Granulocytes [8]: 3696
Platelets [8]: 708000
Quick plasma prothrombin time [8]: 95%
Weight [8]: 7.6 kg
Creatinine [9]: 96 μmols/l
Fibrinogen I [9]: 2.67 g/L
Granulocytes [9]: 2498
Platelets [9]: 329000
Quick plasma prothrombin time [9]: 90%
Weight (baboon No 1, 100 mg/kg i.v., D58): 8.45 kg
Creatinine [10]: 136 μmols/l
Fibrinogen I [10]: 1.86 g/L
Granulocytes [10]: 3726
Platelets [10]: 378000
Quick plasma prothrombin time [10]: 50%
Creatinine [11]: 121 μmols/l
Fibrinogen I [11]: 1.75 g/L
Granulocytes [11]: 1071
Platelets [11]: 375000
Quick plasma prothrombin time [11]: 95%
Creatinine [12]: 138 μmols/l
Fibrinogen I [12]: 2.10 g/L
Granulocytes [12]: 2541
Platelets [12]: 382000
Quick plasma prothrombin time [12]: 95%
Weight (baboon No 1, 100 mg/kg i.v., D84): 7.93 kg
Creatinine [13]: 97 μmols/l
Fibrinogen I [13]: 2.08 g/L
Granulocytes [13]: 3599
Platelets [13]: 549000
Proaccelerin V [13]: 100%
Proconvertin VII + Stuart factor X [13]: 90%
Quick plasma prothrombin time [13]: 85%
Creatinine [14]: 96 μmols/l
Granulocytes [14]: 1917
Platelets [14]: 685000
Creatinine [15]: 110 μmols/l
Fibrinogen I [15]: 2.50 g/L
Granulocytes [15]: 3230
Platelets [15]: 340000
Quick plasma prothrombin time [15]: 95%
Creatinine [16]: 60 μmols/l
Fibrinogen I [16]: 2.25 g/L
Granulocytes [16]: 2030
Platelets [16]: 266000
Quick plasma prothrombin time [16]: 95%
Weight [16]: 8.59 kg
Creatinine [17]: 120 μmols/l
Fibrinogen I [17]: 2.20 g/L
Granulocytes [17]: 10120
Platelets [17]: 231000
Quick plasma prothrombin time [17]: 75%
Creatinine [18]: 102 μmols/l
Fibrinogen I [18]: 2.20 g/L
Granulocytes [18]: 1121
Platelets [18]: 345000
Proaccelerin V [18]: 100%
Proconvertin VII + Stuart factor X [18]: 39%
Prothrombin II [18]: 70%
Quick plasma prothrombin time [18]: 48%
Fibrinogen I [19]: 2.10 g/L
Granulocytes [19]: 1232
Platelets [19]: 348000
Quick plasma prothrombin time [19]: 100%
BUN (baboon No 1, 100 mg/kg i.v., D122, normal range 3-7 mmol/l): 4.5 mmol/L
Creatinine [20]: 90 μmols/l
Fibrinogen I [20]: 2.15 g/L
Granulocytes [20]: 5406
Platelets [20]: 508000
Quick plasma prothrombin time [20]: 100%
Weight (baboon No 1, 100 mg/kg i.v., D133): 7.65 kg
Creatinine [21]: 126 μmols/l
Granulocytes [21]: 7245
Platelets [21]: 580000
Creatinine [22]: 114 μmols/l
Fibrinogen I [22]: 2.50 g/L
Granulocytes [22]: 4794
Platelets [22]: 441000
Quick plasma prothrombin time [22]: 100%
creatine level (baboon No 2, 150 mg/kg i.v.): 1552
death (baboon No 2, 150 mg/kg i.v.): died on D11
food and water intake (baboon No 2, 150 mg/kg i.v.): neither eaten nor drunk for 11 days
Creatinine [23]: 96 μmols/l
Fibrinogen I [23]: 1.46 g/L
Granulocytes [23]: 9672
Platelets [23]: 261000
Proaccelerin V [23]: 70%
Proconvertin VII + Stuart factor X [23]: 62%
Prothrombin II [23]: 42%
Quick plasma prothrombin time [23]: 60%
Creatinine [24]: 245 μmols/l
Fibrinogen I [24]: 2.82 g/L
Granulocytes [24]: 1988
Platelets [24]: 212000
Quick plasma prothrombin time [24]: 85%
Creatinine [25]: 1552 μmols/l
Fibrinogen I [25]: 4.20 g/L
Granulocytes [25]: 555
Platelets [25]: 174000
Proaccelerin V [25]: 100%
Proconvertin VII + Stuart factor X [25]: 55%
Prothrombin II [25]: 55%
Quick plasma prothrombin time [25]: 55%
Weight [25]: 5.5 kg
Creatinine [26]: 140 μmols/l
Fibrinogen I [26]: 2.70 g/L
Granulocytes [26]: 4536
Platelets [26]: 70000
Proaccelerin V [26]: 100%
Proconvertin VII + Stuart factor X [26]: < 5%
Prothrombin II [26]: 30%
Quick plasma prothrombin time [26]: 10%
Weight [26]: 6.25 kg
Creatinine [27]: 350 μmols/l
Fibrinogen I [27]: 3.00 g/L
Granulocytes [27]: 5236
Platelets [27]: 208000
Proaccelerin V [27]: 100%
Proconvertin VII + Stuart factor X [27]: 25%
Prothrombin II [27]: 25%
Quick plasma prothrombin time [27]: 30%
Creatinine [28]: 646 μmols/l
Fibrinogen I [28]: 4.80 g/L
Granulocytes [28]: 7905
Platelets [28]: 241000
Quick plasma prothrombin time [28]: 85%
Weight [28]: 5.31 kg
Creatinine [29]: 265 μmols/l
Fibrinogen I [29]: 3.85 g/L
Granulocytes [29]: 3550
Platelets [29]: 114000
Quick plasma prothrombin time [29]: 90%
Creatinine [30]: 118 μmols/l
Fibrinogen I [30]: 2.60 g/L
Granulocytes [30]: 722
Platelets [30]: 312000
Quick plasma prothrombin time [30]: 100%
Creatinine [31]: 97 μmols/l
Fibrinogen I [31]: 2.00 g/L
Granulocytes [31]: 4872
Platelets [31]: 366000
Quick plasma prothrombin time [31]: 100%
Weight [31]: 5.6 kg
Creatinine [32]: 104 μmols/l
Fibrinogen I [32]: 2.25 g/L
Granulocytes [32]: 10752
Platelets [32]: 457000
Quick plasma prothrombin time [32]: 95%
Weight [32]: 5.9 kg
Creatinine [33]: 94 μmols/l
Fibrinogen I [33]: 1.50 g/L
Granulocytes [33]: 4731
Platelets [33]: 299000
Quick plasma prothrombin time [33]: 95%
Weight [33]: 6.33 kg
toxicity (in words) (baboons): Extremely low toxicity
